# Reference: patent US6919298B2, “Enhanced herbicide composition” (Valent Biosciences Corporation, priority 2002, dated 2005)
# Values joined by “and” are separate entries in the source; they are usually repeats but may differ in a detail not shown here. Identical values can stand only once.
# Assays:
# [1] = tested on: tobacco; assay: Spray (tank mix) phytotoxicity/herbicidal effect on greenhouse tobacco; type: in vivo, Nicotiana tabacum (tobacco); settings: for Phytotoxicity at 4d post-spraying: Percent Leaf Area Affected / Phytotoxicity at 6d post-spraying: Percent Leaf Area Affected: paraquat 187 mg/l and/or Ethephon 1000 ul/l
# Protocol: (§1) In all experiments, deionized ultra-pure water was used in preparing solutions. Spray solutions were used as soon as possible after mixing.
# (§2) COC was added to all spray solutions at a rate of 0.25% (v/v). For all treatments containing both an herbicide and an SAR inducer, these materials were mixed and applied in a single spray solution (commonly known as a tank mix). After spraying, plants were moved to the greenhouse and arranged in a randomized complete block experimental design. Plants were evaluated for phytotoxicity/herbicidal effects after spraying by assessing damage according to percent leaf area affected.
# (§3) All the data were subject to an analysis of variance, and the mean separations were determined with Duncan's new multiple range test at α=0.05. The present invention may be illustrated by the following representative examples: […]
# [2] = tested on: lambsquarter (Chenopodium album); assay: Spray (tank mix) phytotoxicity/herbicidal effect on lambsquarter; type: in vivo
# Protocol: as §1, §2, §3
# [3] = tested on: tobacco; parameters: species or system Nicotiana tabacum (tobacco); settings: in vivo
# Protocol: as §2, §3
# [4] = tested on: tobacco; parameters: species or system Nicotiana tabacum (tobacco); settings: in vivo; remark: listed apart in the source
# Protocol: as §2
# All the data were subject to an analysis of variance, and the mean separations were determined with Duncan's new multiple range test at α=0.05. The present invention may be illustrated by the following representative examples:
# In this experiment, the plants were treated and kept in the dark for 48 hours from the first spray treatment to delay the light-dependent effects of paraquat.
# [5] = tested on: giant foxtail; assay: Spray (tank mix) phytotoxicity/herbicidal effect on giant foxtail; type: in vivo; settings: monocotyledonous plant species (giant foxtail, Table 2)
# Protocol: as §1, §2, §3
# [6] = tobacco, added to the paraquat spray solution
# [7] = lambsquarter, Actigard 187 mg/l, with or without paraquat 150 mg/l, COC 0.25%
# [8] = lambsquarter, Actigard 935 mg/l, with or without paraquat 150 mg/l, COC 0.25%
# [9] = tobacco, Actigard 187 mg/l, with or without paraquat 150 mg/l, COC 0.25%
# [10] = tobacco, Actigard 935 mg/l, with or without paraquat 150 mg/l, COC 0.25%
compound,measurement,setting,value
"O=C(O)c1cc(F)ccc1O [5-FSA, 5-fluorosalicylate]",Phytotoxicity at 6d,[1]; in vivo,2.3 B
same,Phytotoxicity at 8d,[1]; in vivo,2.8 B
same,Phytotoxicity at 11d,[1]; in vivo,2.0 B
same,Safening from paraquat herbicide damage (in words),[1]; [6],able to safen tobacco from paraquat
"c1cc[n+]2c(c1)-c1cccc[n+]1CC2 [Diquat, 1,1′-ethylene-2,2′-bipyridyidiylium ion]",Phytotoxicity at 1d,[1]; in vivo,3.3. D
same,Phytotoxicity at 4d,[1]; in vivo,4.3 C
same,Phytotoxicity at 6d,[1]; in vivo,4.3 C
same,Phytotoxicity at 12d,[1]; in vivo,3.9 C
"C[n+]1ccc(-c2cc[n+](C)cc2)cc1 [Paraquat, 1,1′-dimethyl-4,4′-bipyridinium ion]",Phytotoxicity at 2d,[2]; in vivo,3.9 C
same,Phytotoxicity at 2d: Percent Leaf Area Affected,[2]; in vivo,72.5 C Percent
same,Phytotoxicity at 4d,[2]; in vivo,3.9 BC
same,Phytotoxicity at 4d: Percent Leaf Area Affected,[2]; in vivo,72.5 BC Percent
same,Phytotoxicity at 7d,[2]; in vivo,3.9 BC
same,Phytotoxicity at 7d: Percent Leaf Area Affected,[2]; in vivo,72.5 BC Percent
same,Phytotoxicity at 1d post-spraying,[3],3.7 D
same,Phytotoxicity at 4d post-spraying,[3],3.8 D
same,Phytotoxicity at 6d post-spraying,[3],3.4 E
same,Phytotoxicity at 1d,[1]; in vivo,4.1 E
same,Phytotoxicity at 1d: Percent Leaf Area Affected,[1]; in vivo,75 E Percent
same,Phytotoxicity at 2d: Percent Leaf Area Affected,[1]; in vivo,61.25 E Percent and 65 E Percent
same,Phytotoxicity at 4d: Percent Leaf Area Affected,[1]; in vivo,62.5 F Percent
same,Phytotoxicity at 5d: Percent Leaf Area Affected,[1]; in vivo,83.75 E Percent
same,Phytotoxicity at 7d: Percent Leaf Area Affected,[1]; in vivo,50 D Percent and 96.5 D Percent
same,Phytotoxicity at 8d,[1]; in vivo,5.0 C
same,Phytotoxicity at 10d: Percent Leaf Area Affected,[1]; in vivo,99 F Percent
same,Phytotoxicity at 11d,[1]; in vivo,5.0 E
same,Phytotoxicity at 12d,[1]; in vivo,4.2 C
same,Phytotoxicity at 4d post-spraying: Percent Leaf Area Affected,"[1]; tobacco, COC 0.25%",95 C Percent
same,Phytotoxicity at 6d post-spraying: Percent Leaf Area Affected,"[1]; tobacco, COC 0.25%",97.5 C Percent
same,Phytotoxicity after 3 days in the light (5 days after initial spray),[4],5.0 D
same,Phytotoxicity after 12 days in the light (14 days after initial spray),[4],5.0 D
"O=P(O)(O)CCCl [Ethephon, (2-choroethyl) phosphonic acid]",Safening from paraquat with pre-treatment with 1-MCP (in words),"[1]; tobacco, 1-MCP, an inhibitor of ethylene perception",observed regardless of pre-treatment with 1-MCP
same,Safening from paraquat herbicide damage (in words),[1]; [6],safened the plants from paraquat herbicide damage
same,Phytotoxicity at 4d post-spraying: Percent Leaf Area Affected,"[1]; tobacco, COC 0.25%",0 A Percent
same,Phytotoxicity at 6d post-spraying: Percent Leaf Area Affected,"[1]; tobacco, COC 0.25%",0 A Percent
"CSC(=O)c1cccc2nnsc12 [Actigard, Benzo(1,2,3)thiadiazole-7-carbothioic acid-S-methyl ester]",Phytotoxicity at 2d: Percent Leaf Area Affected,[2]; [7],0 A Percent
same,Phytotoxicity at 4d: Percent Leaf Area Affected,[2]; [7],0 A Percent
same,Phytotoxicity at 7d: Percent Leaf Area Affected,[2]; [7],0 A Percent
same,Phytotoxicity at 2d: Percent Leaf Area Affected,[2]; [8],0 A Percent
same,Phytotoxicity at 4d: Percent Leaf Area Affected,[2]; [8],0 A Percent
same,Phytotoxicity at 7d: Percent Leaf Area Affected,[2]; [8],0 A Percent
same,Protection from paraquat damage (in words),"[2]; lambsquarter, tank mixed or applied with paraquat",did show safening
same,Phytotoxicity at 2d: Percent Leaf Area Affected,[1]; [9],0 A Percent
same,Phytotoxicity at 4d: Percent Leaf Area Affected,[1]; [9],0 A Percent
same,Phytotoxicity at 7d: Percent Leaf Area Affected,[1]; [9],0 A Percent
same,Phytotoxicity at 2d: Percent Leaf Area Affected,[1]; [10],1 A Percent
same,Phytotoxicity at 4d: Percent Leaf Area Affected,[1]; [10],0 A Percent
same,Phytotoxicity at 7d: Percent Leaf Area Affected,[1]; [10],0 A Percent
same,Safening from paraquat herbicide damage (in words),[1]; [6],safened the plants from paraquat herbicide damage
"O=C([O-])c1ccccc1O.[Na+] [NaSA, sodium salicylate]",Protection from paraquat damage (in words),[2]; in vivo,limited or no protection from paraquat damage
same,Protection from paraquat damage (in words),[3],significant protection from paraquat damage
same,Safening from paraquat herbicide damage (in words),[1]; in vivo,safened the plants from paraquat herbicide damage
same,Safening against diquat (in words),"[1]; tobacco, Table 3",able to safen tobacco against the herbicide diquat
same,Safening from paraquat damage (in words),[5],safen plants from paraquat damage
same,Safening from paraquat (in words),[4],resulted in safening
